Tests used:
Test in all cases: relative viability (nuclei count vs DMSO), 5 days (fraction); higher = more cells survive
SK-LU-1 = test system: SK-LU-1
Procedure, shortened: (§1)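 Relative viability equals treated-well nuclei counts divided by vehicle-well nuclei counts. Counts came from 4× images of lung cancer cell lines grown in 1536-well plates for 5 days after pin-tool dosing on the day after seeding. Dosing used one drug alone or a fixed anchor-drug dose plus five library-drug doses (not always all listed) in √10 steps, and values are medians of duplicate plates.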

NCI-H3122 = test system: NCI-H3122
Procedure, shortened: as §1

NCI-H2087 = test system: NCI-H2087
Procedure, shortened: as §1

HCC-44 = test system: HCC-44
Procedure, shortened: as §1

LCLC-103H = test system: LCLC-103H
Procedure, shortened: as §1

201T = test system: 201T
Procedure, shortened: as §1

RERF-LC-KJ = test system: RERF-LC-KJ
Procedure, shortened: as §1

NCI-H1437 = test system: NCI-H1437
Procedure, shortened: as §1

NCI-H1793 = test system: NCI-H1793
Procedure, shortened: as §1

NCI-H1944 = test system: NCI-H1944
Procedure, shortened: as §1

LCLC-97TM1 = test system: LCLC-97TM1
Procedure, shortened: as §1

LXF-289 = test system: LXF-289
Procedure, shortened: as §1

NCI-H322M = test system: NCI-H322M
Procedure, shortened: as §1

BEN = test system: BEN
Procedure, shortened: as §1

NCI-H727 = test system: NCI-H727
Procedure, shortened: as §1

NCI-H2405 = test system: NCI-H2405
Procedure, shortened: as §1

NCI-H2228 = test system: NCI-H2228
Procedure, shortened: as §1

HCC-827 = test system: HCC-827
Procedure, shortened: as §1

NCI-H1650 = test system: NCI-H1650
Procedure, shortened: as §1

CAL-12T = test system: CAL-12T
Procedure, shortened: as §1

NCI-H647 = test system: NCI-H647
Procedure, shortened: as §1

HOP-62 = test system: HOP-62
Procedure, shortened: as §1

NCI-H1395 = test system: NCI-H1395
Procedure, shortened: as §1

`O=C(O)c1ccc(-c2c[nH]c3ncc(-c4ccccc4)cc23)cc1C1CCCC1` + COc1cccc2cc(-c3nc([C@H]4CC[C@H](C(=O)O)CC4)n4ncnc(N)c34)[nH]c12 [OSI-027] (partner 0.5 µM) gave a relative viability (SK-LU-1; first compound 0.04 µM) of 0.329, a relative viability (SK-LU-1; first compound 0.1265 µM) of 0.391 and a relative viability (SK-LU-1; first compound 0.4 µM) of 0.324. It also gave a relative viability (SK-LU-1; first compound 1.265 µM) of 0.274, a relative viability (NCI-H3122; first compound 0.04 µM) of 0.973 and a relative viability (NCI-H3122; first compound 0.1265 µM) of 1.12. It also gave a relative viability (NCI-H3122; first compound 0.4 µM) of 0.922, a relative viability (NCI-H3122; first compound 1.265 µM) of 0.717 and a relative viability (NCI-H2087; first compound 0.04 µM) of 0.563. For the same compound, the relative viability (NCI-H2087; first compound 0.1265 µM) was 0.673, the relative viability (NCI-H2087; first compound 0.4 µM) was 0.416 and the relative viability (NCI-H2087; first compound 1.265 µM) was 0.47. For the same compound, the relative viability (HCC-44; first compound 0.04 µM) was 0.512, the relative viability (HCC-44; first compound 0.1265 µM) was 0.505 and the relative viability (HCC-44; first compound 0.4 µM) was 0.594. For the same compound, the relative viability (HCC-44; first compound 1.265 µM) was 0.484, the relative viability (LCLC-103H; first compound 0.04 µM) was 0.444 and the relative viability (LCLC-103H; first compound 0.1265 µM) was 0.554. For the same compound, the relative viability (LCLC-103H; first compound 0.4 µM) was 0.389, the relative viability (LCLC-103H; first compound 1.265 µM) was 0.452 and the relative viability (201T; first compound 0.04 µM) was 0.693. For the same compound, the relative viability (201T; first compound 0.1265 µM) was 0.682, the relative viability (201T; first compound 1.265 µM) was 0.716 and the relative viability (RERF-LC-KJ; first compound 0.04 µM) was 0.561. The relative viability (RERF-LC-KJ; first compound 0.1265 µM) was 0.598, the relative viability (RERF-LC-KJ; first compound 0.4 µM) was 0.582 and the relative viability (RERF-LC-KJ; first compound 1.265 µM) was 0.527. For the same compound, the relative viability (NCI-H1437; first compound 0.04 µM) was 0.898, the relative viability (NCI-H1437; first compound 0.1265 µM) was 0.926 and the relative viability (NCI-H1437; first compound 0.4 µM) was 1.01. For the same compound, the relative viability (NCI-H1437; first compound 1.265 µM) was 0.565, the relative viability (NCI-H1793; first compound 0.04 µM) was 0.312 and the relative viability (NCI-H1793; first compound 0.1265 µM) was 0.362. The relative viability (NCI-H1793; first compound 0.4 µM) was 0.288, the relative viability (NCI-H1793; first compound 1.265 µM) was 0.283 and the relative viability (NCI-H1944; first compound 0.04 µM) was 0.429. For the same compound, the relative viability (NCI-H1944; first compound 0.1265 µM) was 0.428, the relative viability (NCI-H1944; first compound 0.4 µM) was 0.345 and the relative viability (NCI-H1944; first compound 1.265 µM) was 0.39. The relative viability (LCLC-97TM1; first compound 0.04 µM) was 0.474, the relative viability (LCLC-97TM1; first compound 0.1265 µM) was 0.659 and the relative viability (LCLC-97TM1; first compound 0.4 µM) was 0.518. The relative viability (LCLC-97TM1; first compound 1.265 µM) was 0.526, the relative viability (LXF-289; first compound 0.04 µM) was 0.848 and the relative viability (LXF-289; first compound 0.1265 µM) was 0.879. The relative viability (LXF-289; first compound 0.4 µM) was 0.764, the relative viability (LXF-289; first compound 1.265 µM) was 0.581 and the relative viability (NCI-H322M; first compound 0.04 µM) was 0.546. For the same compound, the relative viability (NCI-H322M; first compound 0.1265 µM) was 0.588, the relative viability (NCI-H322M; first compound 0.4 µM) was 0.674 and the relative viability (NCI-H322M; first compound 1.265 µM) was 0.521. It also gave a relative viability (BEN; first compound 0.04 µM) of 0.329, a relative viability (BEN; first compound 0.1265 µM) of 0.269 and a relative viability (BEN; first compound 0.4 µM) of 0.307. For the same compound, the relative viability (BEN; first compound 1.265 µM) was 0.284, the relative viability (NCI-H727; first compound 0.04 µM) was 0.678 and the relative viability (NCI-H727; first compound 0.1265 µM) was 0.672. It also gave a relative viability (NCI-H727; first compound 0.4 µM) of 0.887, a relative viability (NCI-H727; first compound 1.265 µM) of 0.667 and a relative viability (NCI-H2405; first compound 0.04 µM) of 0.653. The relative viability (NCI-H2405; first compound 0.1265 µM) was 0.626, the relative viability (NCI-H2405; first compound 0.4 µM) was 0.617 and the relative viability (NCI-H2405; first compound 1.265 µM) was 0.605. The relative viability (NCI-H2228; first compound 0.04 µM) was 0.557, the relative viability (NCI-H2228; first compound 0.1265 µM) was 0.568 and the relative viability (NCI-H2228; first compound 0.4 µM) was 0.446. For the same compound, the relative viability (NCI-H2228; first compound 1.265 µM) was 0.355, the relative viability (HCC-827; first compound 0.04 µM) was 0.65 and the relative viability (HCC-827; first compound 0.1265 µM) was 0.81. It also gave a relative viability (HCC-827; first compound 0.4 µM) of 0.725, a relative viability (HCC-827; first compound 1.265 µM) of 0.77 and a relative viability (NCI-H1650; first compound 0.04 µM) of 0.544. It also gave a relative viability (NCI-H1650; first compound 0.1265 µM) of 0.624, a relative viability (NCI-H1650; first compound 0.4 µM) of 0.624 and a relative viability (NCI-H1650; first compound 1.265 µM) of 0.394. The relative viability (CAL-12T; first compound 0.04 µM) was 0.63, the relative viability (CAL-12T; first compound 0.1265 µM) was 0.751 and the relative viability (CAL-12T; first compound 0.4 µM) was 0.671. For the same compound, the relative viability (CAL-12T; first compound 1.265 µM) was 0.547, the relative viability (NCI-H647; first compound 0.04 µM) was 0.701 and the relative viability (NCI-H647; first compound 0.1265 µM) was 0.716. For the same compound, the relative viability (NCI-H647; first compound 0.4 µM) was 0.669, the relative viability (NCI-H647; first compound 1.265 µM) was 0.574 and the relative viability (HOP-62; first compound 0.04 µM) was 0.899. It also gave a relative viability (HOP-62; first compound 0.1265 µM) of 0.859, a relative viability (HOP-62; first compound 0.4 µM) of 0.707 and a relative viability (HOP-62; first compound 1.265 µM) of 0.805. For the same compound, the relative viability (NCI-H1395; first compound 0.04 µM) was 0.627, the relative viability (NCI-H1395; first compound 0.1265 µM) was 0.773 and the relative viability (NCI-H1395; first compound 0.4 µM) was 0.516. The relative viability (NCI-H1395; first compound 1.265 µM) was 0.537.
